US20210300924A1, “5-[6-[[3-(4,5,6,7-TETRAHYDROPYRAZOLO[4,3-C]PYRIDIN-1-YL)AZETIDIN-1-YL]METHYL]MORPHOLIN-4-YL]QUINOLINE-8-CARBONITRILE DERIVATIVES AND SIMILAR COMPOUNDS AS TLR7-9 ANTAGONISTS FOR TREATING SYSTEMIC LUPUS ERYTHEMATOSUS” (Hoffmann-La Roche Inc., priority 2018, published 2021)
Like-named read-outs stand apart in the source and are kept apart here.

Legend:
hERG channel = target: T1, hERG channel (Homo sapiens, UniProt Q12809); assay: hERG channel inhibition assay (patch-clamp, CHOhERG cells); type: cell-based; settings: for safety window (hERG IC20/TLR7/8/9 IC50) compared to the compounds of this invention: in words; for hERG IC20/TLR7 IC50 / hERG IC20/TLR9 IC50 / hERG IC20/TLR8 IC50: safety ratio, >30 suggests sufficient window
T1 construct: expressed in transfected cells; host or cells: CHO (Chinese hamster ovary), CHOhERG
T1 sequence (Q12809 whole entry): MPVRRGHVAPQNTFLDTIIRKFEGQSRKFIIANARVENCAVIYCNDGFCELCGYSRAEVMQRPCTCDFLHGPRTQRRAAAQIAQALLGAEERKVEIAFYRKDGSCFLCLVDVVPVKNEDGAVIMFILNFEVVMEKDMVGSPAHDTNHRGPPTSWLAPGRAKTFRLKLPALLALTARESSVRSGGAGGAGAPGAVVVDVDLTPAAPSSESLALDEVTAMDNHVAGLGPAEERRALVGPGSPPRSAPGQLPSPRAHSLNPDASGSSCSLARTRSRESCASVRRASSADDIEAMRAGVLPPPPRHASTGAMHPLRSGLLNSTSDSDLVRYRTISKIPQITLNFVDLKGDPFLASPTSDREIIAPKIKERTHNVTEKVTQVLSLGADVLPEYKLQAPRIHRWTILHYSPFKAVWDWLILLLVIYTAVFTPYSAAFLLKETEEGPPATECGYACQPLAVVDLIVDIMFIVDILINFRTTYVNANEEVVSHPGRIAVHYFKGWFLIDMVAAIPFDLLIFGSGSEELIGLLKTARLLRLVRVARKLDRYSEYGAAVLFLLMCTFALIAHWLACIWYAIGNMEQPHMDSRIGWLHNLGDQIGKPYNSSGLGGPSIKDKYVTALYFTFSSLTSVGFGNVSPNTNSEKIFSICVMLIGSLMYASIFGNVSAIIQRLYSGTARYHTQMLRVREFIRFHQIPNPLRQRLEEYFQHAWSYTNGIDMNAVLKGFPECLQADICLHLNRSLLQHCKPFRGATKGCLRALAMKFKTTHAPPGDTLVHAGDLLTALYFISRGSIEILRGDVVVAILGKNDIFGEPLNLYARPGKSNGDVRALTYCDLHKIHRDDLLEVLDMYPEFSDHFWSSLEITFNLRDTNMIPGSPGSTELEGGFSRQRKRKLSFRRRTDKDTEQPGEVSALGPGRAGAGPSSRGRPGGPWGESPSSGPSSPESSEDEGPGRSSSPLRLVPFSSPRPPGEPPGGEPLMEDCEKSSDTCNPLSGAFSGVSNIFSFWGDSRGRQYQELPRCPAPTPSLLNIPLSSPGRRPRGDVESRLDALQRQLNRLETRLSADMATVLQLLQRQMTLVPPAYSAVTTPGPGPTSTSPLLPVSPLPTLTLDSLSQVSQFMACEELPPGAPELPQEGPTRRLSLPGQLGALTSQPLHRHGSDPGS
Protocol: hERG Channel Inhibition Assay:
The hERG K^+ channels were cloned in humans and stably expressed in a CHO (Chinese hamster ovary) cell line. CHOhERG cells were used for patch-clamp (voltage-clamp, whole-cell) experiments. Cells were stimulated by a voltage pattern to activate hERG channels and conduct hERG currents (rapid delayed outward rectifier potassium current of the hERG channel). After the cells were stabilized for a few minutes, the amplitude and kinetics of IKhERG were recorded at a stimulation frequency of 0.1 Hz (6 bpm). Thereafter, the test compound was added to the preparation at increasing concentrations. For each concentration, an attempt was made to reach a steady-state effect, usually, this was achieved within 3-10 min at which time the next highest concentration was applied. The amplitude and kinetics of IKhERG are recorded in each concentration of the drug which were compared to the control values (taken as 100%). (references: Redfern W S, Carlsson L, Davis A S, Lynch W G, MacKenzie I, Palethorpe S, Siegl P K, Strang I, Sullivan A T, Wallis R, Camm A J, Hammond T G. 2003; Relationships between preclinical cardiac electrophysiology, clinical QT interval prolongation and torsade de pointes for a broad range of drugs: evidence for a provisional safety margin in drug development. Cardiovasc. Res. 58:32-45, Sanguinetti MC, Tristani-Firouzi M. 2006; hERG potassium channels and cardiac arrhythmia. Nature 440:463-469, Webster R, Leishman D, Walker D. 2002; Towards a drug concentration effect relationship for QT prolongation and torsades de pointes. Curr. Opin. Drug Discov. Devel. 5:116-26).

TLR9 [1] = target: T2, TLR9 (Homo sapiens, UniProt Q9NR96); design: host or cells: HEK cells; settings: data disclosed in US20150105370; read-out: HEK/hTLR9 IC50; cited from earlier work
T2 sequence (Q9NR96 26-1032): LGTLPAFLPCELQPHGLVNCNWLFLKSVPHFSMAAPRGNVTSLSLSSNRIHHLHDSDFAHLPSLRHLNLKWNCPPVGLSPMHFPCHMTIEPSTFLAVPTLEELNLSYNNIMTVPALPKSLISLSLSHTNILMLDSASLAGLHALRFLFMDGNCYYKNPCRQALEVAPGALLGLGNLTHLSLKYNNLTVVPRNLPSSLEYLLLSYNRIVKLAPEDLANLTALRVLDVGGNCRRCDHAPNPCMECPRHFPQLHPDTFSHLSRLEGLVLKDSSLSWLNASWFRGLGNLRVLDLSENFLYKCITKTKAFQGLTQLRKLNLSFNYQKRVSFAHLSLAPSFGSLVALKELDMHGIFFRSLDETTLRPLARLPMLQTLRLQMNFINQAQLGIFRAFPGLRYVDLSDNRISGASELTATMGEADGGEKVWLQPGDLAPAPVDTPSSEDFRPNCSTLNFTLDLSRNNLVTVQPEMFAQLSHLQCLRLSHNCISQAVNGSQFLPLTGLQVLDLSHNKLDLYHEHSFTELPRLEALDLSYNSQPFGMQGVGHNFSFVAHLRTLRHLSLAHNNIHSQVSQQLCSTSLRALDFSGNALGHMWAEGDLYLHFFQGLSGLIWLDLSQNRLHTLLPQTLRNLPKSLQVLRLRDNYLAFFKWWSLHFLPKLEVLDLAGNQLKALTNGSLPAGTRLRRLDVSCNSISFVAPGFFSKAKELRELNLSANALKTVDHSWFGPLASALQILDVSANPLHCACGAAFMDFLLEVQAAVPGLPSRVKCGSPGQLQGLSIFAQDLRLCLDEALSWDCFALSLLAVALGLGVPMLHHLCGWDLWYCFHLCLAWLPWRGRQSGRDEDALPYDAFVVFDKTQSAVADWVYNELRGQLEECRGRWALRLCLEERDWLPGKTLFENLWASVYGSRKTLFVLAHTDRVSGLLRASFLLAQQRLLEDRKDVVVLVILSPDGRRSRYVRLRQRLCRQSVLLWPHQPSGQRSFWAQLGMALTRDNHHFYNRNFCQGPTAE

TLR9 [2] = target: T2, TLR9; assay: Human PBMC cell-based assay; design: endogenous in cells; host or cells: human PBMC from healthy donor whole blood; settings: CpG ODN 2216 stimulation, overnight, cytokine readout, read-out: hPBMC/TLR9 IC50
Text: Human PBMC Cell-Based Assay
Unlike the HEK reporter cell lines, human peripheral blood mononuclear cell (PBMC) represents primary human immune cells in blood mainly consisting of lymphocytes, monocytes, and dendritic cells. These cells express TLR7, TLR8, or TLR9, and therefore are natural responders to respective ligand stimulation. Upon activation of these TLRs, PBMCs secrete similar cytokines and chemokines in vitro and in vivo, and therefore the in vitro potency of a TLR7/8/9 antagonist in human PBMC is readily translatable to its pharmacodynamics response in vivo.
Human peripheral blood mononuclear cells (PBMC) were isolated from freshly-drawn lithium-heparinized (Lithium Heparin Plus blood Collection tube, BD Vacutainer®) healthy donor whole blood by density gradient (Ficoll-Paque™ PLUS, GE Healthcare life Sciences). Briefly, […] was diluted with 25 mL PBS (without Ca^2+, Mg^2+) in a 50 mL conical tube with porous barrier (Leucosep tube, Greiner bio-one), where 15.5 mL Ficoll-Paque was under laid after spinning. Tubes were centrifuged for 20 minutes at 800×g (1946 rpm) with the brake in the off position, and PBMC were collected from the buffy coat. Cells were then washed twice in PBS, and red blood cells were lysed by suspension in 2 mL (Red Blood Cell Lysis Buffer, Alfa Aesar) for 5-10 minutes at room temperature. After a final wash in PBS, PBMC were resuspended at a final concentration of 2×10^6 cells/mL in RPMI-1640 media with GlutaMAX™ (Gibco) supplemented with 10% Fetal Bovine Serum (Sigma) and plated at 150 μL/well (3×10^5 cells/well) in tissue culture treated round bottom 96-well plates (Corning Incorporated). Antagonist compounds (compounds of this invention) solubilized and serial diluted in 100% DMSO were added in duplicate to cells to yield a final concentration of 1% DMSO (v/v). PBMC were incubated with antagonist compounds for 30 minutes at 37° C., 5% CO2 before adding various TLR agonist reagents in 48 μL complete media per well as follows (final concentrations indicated): CpG ODN 2216 (InvivoGen) at […] for TLR9, ORN 06/LyoVec (InvivoGen) at 1 μg/mL for TLR8 and R848 (InvivoGen) at 1 μg/mL for TLR7 and TLR8. PBMC were incubated overnight at 37° C. with 5% CO2. Cell culture supernatants were collected, and levels of various human cytokines were assessed by Luminex assay (ProcartaPlex™ Multiplex Immunoassay, Invitrogen) or ELISA procedure according to the manufacturer's recommended protocol (eBioscience, ThermoFisher Scientific). Viability of the cells was also checked with Cell Viability Assay (CellTiter Glo® Luminescent Cell Viability Assay, Promega).

| IC50 (TLR9 [2]) [µM] | Compound | safety window (hERG IC20/TLR7/8/9 IC50) compared to the compounds of this invention (hERG channel) | hERG IC20/TLR7 IC50 (hERG channel) | hERG IC20/TLR9 IC50 (hERG channel) | IC50 (TLR9 [1]) [µM] | hERG IC20/TLR8 IC50 (hERG channel) |
| --- | --- | --- | --- | --- | --- | --- |
|  | C[C@@H]1CN(c2ccc(C#N)c3ncccc23)C[C@H](CN2CCN(c3ccccc3)CC2)O1 [ER-887258, reference compound] | much narrower safety window | 8.1 | 0.3 | > 2 |  |
|  | C[C@@H]1CN(c2ccc(C#N)c3ncccc23)C[C@H](CN2CCN(c3ccccn3)CC2)O1 [ER-888285, reference compound] | much narrower safety window | 8.4 | 0.5 | > 2 |  |
| 1.63 | C[C@@H]1CN(c2ccc(C#N)c3ncccc23)C[C@H](CN2CCN(c3ccncc3)CC2)O1 [ER-888286, reference compound] | much narrower safety window | 0.3 | 0.2 | > 2 |  |
|  | C[C@@H]1CN(c2ccc(C#N)c3ncccc23)C[C@H](CN2CC(NS(=O)(=O)c3ccc(F)cc3)C2)O1 [ER-894155] |  |  |  | > 10 |  |
|  | Cc1nn(C)cc1S(=O)(=O)NC1CCN(C[C@H]2CN(c3ccc(C#N)c4ncccc34)C[C@@H](C)O2)CC1 [ER-894160] |  |  |  | > 10 |  |
|  | C[C@@H]1CN(c2ccc(C#N)c3ncccc23)C[C@H](CN2CC[C@@H](NC(=O)c3ccccc3)C2)O1 [ER-894544] |  |  |  | > 6.2 |  |
|  | COc1ccc(N2CCN(C[C@H]3CN(c4ccc(C#N)c5ncccc45)C[C@@H](C)O3)CC2)cc1 [Example R1, 5-[(2S,6R)-2-[[4-(4-methoxyphenyl)piperazin-1-yl]methyl]-6-methyl-morpholin-4-yl]quinoline-8-carbonitrile, reference compound] | much narrower safety window | 9.3 | 0.1 |  | 6.2 |
|  | C[C@@H]1CN(c2ccc(C#N)c3ncccc23)C[C@H](CN2CCN(c3ccc(Cl)cc3)CC2)O1 [Example R2, 5-[(2S,6R)-2-[[4-(4-chlorophenyl)piperazin-1-yl]methyl]-6-methyl-morpholin-4-yl]quinoline-8-carbonitrile, reference compound] | much narrower safety window | 1.3 | 0.04 |  | 0.8 |
